Test results: PubChem BioAssay (NCI)
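These data come from cells grown in 96-well plates and exposed to compound for 48 hours at five concentrations. GI50 marks 50% less growth. TGI: total growth inhibition.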

Key:
Assay in all cases: NCI-60 cell line screen, 48 h
SW-620 colon = tested on: SW-620 colon
DU-145 prostate = tested on: DU-145 prostate
UACC-257 melanoma = tested on: UACC-257 melanoma
NCI/ADR-RES ovarian = tested on: NCI/ADR-RES ovarian
T-47D breast = tested on: T-47D breast
OVCAR-4 ovarian = tested on: OVCAR-4 ovarian
SK-MEL-2 melanoma = tested on: SK-MEL-2 melanoma
HOP-92 NSCLC = tested on: HOP-92 NSCLC
BT-549 breast = tested on: BT-549 breast
SF-295 CNS = tested on: SF-295 CNS
COLO 205 colon = tested on: COLO 205 colon
K-562 leukemia = tested on: K-562 leukemia
SN12C renal = tested on: SN12C renal
HOP-62 NSCLC = tested on: HOP-62 NSCLC
SK-MEL-5 melanoma = tested on: SK-MEL-5 melanoma
UACC-62 melanoma = tested on: UACC-62 melanoma
SNB-75 CNS = tested on: SNB-75 CNS
HL-60(TB) leukemia = tested on: HL-60(TB) leukemia
TK-10 renal = tested on: TK-10 renal
M14 melanoma = tested on: M14 melanoma
IGROV1 ovarian = tested on: IGROV1 ovarian
A549 NSCLC = tested on: A549 NSCLC
HCT-116 colon = tested on: HCT-116 colon
NCI-H460 lung = tested on: NCI-H460 lung
SF-539 CNS = tested on: SF-539 CNS
ACHN renal = tested on: ACHN renal
RPMI-8226 leukemia = tested on: RPMI-8226 leukemia
UO-31 renal = tested on: UO-31 renal
MDA-MB-231 breast = tested on: MDA-MB-231 breast
HS 578T breast = tested on: HS 578T breast
SNB-19 CNS = tested on: SNB-19 CNS
PC-3 prostate = tested on: PC-3 prostate
NCI-H23 lung = tested on: NCI-H23 lung
HCT-15 colon = tested on: HCT-15 colon
OVCAR-5 ovarian = tested on: OVCAR-5 ovarian
MDA-MB-435 = tested on: MDA-MB-435
NCI-H522 lung = tested on: NCI-H522 lung
HT29 colon = tested on: HT29 colon
SK-OV-3 ovarian = tested on: SK-OV-3 ovarian
NCI-H226 lung = tested on: NCI-H226 lung
CCRF-CEM leukemia = tested on: CCRF-CEM leukemia
MOLT-4 leukemia = tested on: MOLT-4 leukemia
SF-268 CNS = tested on: SF-268 CNS
EKVX NSCLC = tested on: EKVX NSCLC
OVCAR-8 ovarian = tested on: OVCAR-8 ovarian
MALME-3M melanoma = tested on: MALME-3M melanoma
786-0 renal = tested on: 786-0 renal
SK-MEL-28 melanoma = tested on: SK-MEL-28 melanoma
OVCAR-3 ovarian = tested on: OVCAR-3 ovarian
A498 renal = tested on: A498 renal
CAKI-1 renal = tested on: CAKI-1 renal
KM12 colon = tested on: KM12 colon
MCF7 breast = tested on: MCF7 breast
U251 CNS = tested on: U251 CNS
RXF 393 renal = tested on: RXF 393 renal
MDA-MB-468 breast = tested on: MDA-MB-468 breast
HCC-2998 colon = tested on: HCC-2998 colon
LOX IMVI melanoma = tested on: LOX IMVI melanoma

CN(C)CCCNC(=O)c1cc(NC(=O)c2cc(NC(=O)c3ccc(C#Cc4ccccc4)cc3)cn2C)cn1C
GI50 (SW-620 colon): 2.87 µM
TGI (SW-620 colon): 6.02 µM
GI50 (DU-145 prostate): 2.55 µM
TGI (DU-145 prostate): 5.18 µM
GI50 (UACC-257 melanoma): 2.12 µM
TGI (UACC-257 melanoma): 4.77 µM
GI50 (NCI/ADR-RES ovarian): 2.85 µM
TGI (NCI/ADR-RES ovarian): 7.02 µM
GI50 (T-47D breast): 2.07 µM
TGI (T-47D breast): 4.94 µM
GI50 (OVCAR-4 ovarian): 4.21 µM
TGI (OVCAR-4 ovarian): > 15.3 µM
GI50 (SK-MEL-2 melanoma): 2.91 µM
TGI (SK-MEL-2 melanoma): 5.98 µM
GI50 (HOP-92 NSCLC): 0.611 µM
TGI (HOP-92 NSCLC): 3.47 µM
GI50 (BT-549 breast): 1.79 µM
TGI (BT-549 breast): 3.94 µM
GI50 (SF-295 CNS): 2.53 µM
TGI (SF-295 CNS): 4.97 µM
GI50 (COLO 205 colon): 3.17 µM
TGI (COLO 205 colon): 5.82 µM
GI50 (K-562 leukemia): 2.74 µM
TGI (K-562 leukemia): 7.99 µM
GI50 (SN12C renal): 2.03 µM
TGI (SN12C renal): 4.09 µM
GI50 (HOP-62 NSCLC): 2.85 µM
TGI (HOP-62 NSCLC): 5.42 µM
GI50 (SK-MEL-5 melanoma): 2.34 µM
TGI (SK-MEL-5 melanoma): 4.37 µM
GI50 (UACC-62 melanoma): 1.93 µM
TGI (UACC-62 melanoma): 4.07 µM
GI50 (SNB-75 CNS): 2.48 µM
TGI (SNB-75 CNS): > 15.3 µM
GI50 (HL-60(TB) leukemia): 2.62 µM
TGI (HL-60(TB) leukemia): 7.14 µM
GI50 (TK-10 renal): 3.33 µM
TGI (TK-10 renal): 9.03 µM
GI50 (M14 melanoma): 2.26 µM
TGI (M14 melanoma): 4.54 µM
GI50 (IGROV1 ovarian): 4.95 µM
TGI (IGROV1 ovarian): > 15.3 µM
GI50 (A549 NSCLC): 2.56 µM
TGI (A549 NSCLC): 5.38 µM
GI50 (HCT-116 colon): 2.1 µM
TGI (HCT-116 colon): 4.46 µM
GI50 (NCI-H460 lung): 2.76 µM
TGI (NCI-H460 lung): 6.04 µM
GI50 (SF-539 CNS): 2.48 µM
TGI (SF-539 CNS): 4.7 µM
GI50 (ACHN renal): 2.74 µM
TGI (ACHN renal): 6 µM
GI50 (RPMI-8226 leukemia): 1.76 µM
TGI (RPMI-8226 leukemia): 5.89 µM
GI50 (UO-31 renal): 3.08 µM
TGI (UO-31 renal): 12.2 µM
GI50 (MDA-MB-231 breast): 2.84 µM
TGI (MDA-MB-231 breast): 5.03 µM
GI50 (HS 578T breast): 3.7 µM
TGI (HS 578T breast): 10 µM
GI50 (SNB-19 CNS): 2.84 µM
TGI (SNB-19 CNS): 5.01 µM
GI50 (PC-3 prostate): 2.4 µM
TGI (PC-3 prostate): 5.38 µM
GI50 (NCI-H23 lung): 2.76 µM
TGI (NCI-H23 lung): 5.37 µM
GI50 (HCT-15 colon): 2.23 µM
TGI (HCT-15 colon): 4.48 µM
GI50 (OVCAR-5 ovarian): 3.17 µM
TGI (OVCAR-5 ovarian): 7.43 µM
GI50 (MDA-MB-435): 2.21 µM
TGI (MDA-MB-435): 4.39 µM
GI50 (NCI-H522 lung): 2.56 µM
TGI (NCI-H522 lung): 5.16 µM
GI50 (HT29 colon): 2.56 µM
TGI (HT29 colon): 6.64 µM
GI50 (SK-OV-3 ovarian): 5.58 µM
TGI (SK-OV-3 ovarian): > 15.3 µM
GI50 (NCI-H226 lung): 2.28 µM
TGI (NCI-H226 lung): 4.79 µM
GI50 (CCRF-CEM leukemia): 1.66 µM
TGI (CCRF-CEM leukemia): 6.46 µM
GI50 (MOLT-4 leukemia): 2.4 µM
TGI (MOLT-4 leukemia): 7.24 µM
GI50 (SF-268 CNS): 2.56 µM
TGI (SF-268 CNS): 5.65 µM
GI50 (EKVX NSCLC): 2.49 µM
TGI (EKVX NSCLC): 5.18 µM
GI50 (OVCAR-8 ovarian): 2.57 µM
TGI (OVCAR-8 ovarian): 6.63 µM
GI50 (MALME-3M melanoma): 2.11 µM
TGI (MALME-3M melanoma): 4.22 µM
GI50 (786-0 renal): 2.65 µM
TGI (786-0 renal): 4.9 µM
GI50 (SK-MEL-28 melanoma): 2.4 µM
TGI (SK-MEL-28 melanoma): 4.47 µM
GI50 (OVCAR-3 ovarian): 1.83 µM
TGI (OVCAR-3 ovarian): 4.13 µM
GI50 (A498 renal): 3 µM
TGI (A498 renal): 8.96 µM
GI50 (CAKI-1 renal): 2.85 µM
TGI (CAKI-1 renal): 7.97 µM
GI50 (KM12 colon): 2.93 µM
TGI (KM12 colon): 6.81 µM
GI50 (MCF7 breast): 0.58 µM
TGI (MCF7 breast): 2.38 µM
GI50 (U251 CNS): 2.45 µM
TGI (U251 CNS): 5.93 µM
GI50 (RXF 393 renal): 1.61 µM
TGI (RXF 393 renal): 3.84 µM
GI50 (MDA-MB-468 breast): 2.34 µM
TGI (MDA-MB-468 breast): 4.43 µM
GI50 (HCC-2998 colon): 2.34 µM
TGI (HCC-2998 colon): 4.42 µM
GI50 (LOX IMVI melanoma): 2.24 µM
TGI (LOX IMVI melanoma): 4.31 µM
